Four molecules from patent publication US20240279281A1, “Peptide Inhibitors of Interleukin-23 Receptor” (Janssen Pharmaceutica NV, priority 2023, published 2024) can be followed below.

The conditions of data set [1]: disulfide bond, 20-membered ring, I2/MeOH, 20% MeCN/H2O.
For data set [2], the target named is T1, IL-23R (Homo sapiens, UniProt Q5VWK5).
T1 construct: host or cells: HEK293
T1 sequence (Q5VWK5 24-629): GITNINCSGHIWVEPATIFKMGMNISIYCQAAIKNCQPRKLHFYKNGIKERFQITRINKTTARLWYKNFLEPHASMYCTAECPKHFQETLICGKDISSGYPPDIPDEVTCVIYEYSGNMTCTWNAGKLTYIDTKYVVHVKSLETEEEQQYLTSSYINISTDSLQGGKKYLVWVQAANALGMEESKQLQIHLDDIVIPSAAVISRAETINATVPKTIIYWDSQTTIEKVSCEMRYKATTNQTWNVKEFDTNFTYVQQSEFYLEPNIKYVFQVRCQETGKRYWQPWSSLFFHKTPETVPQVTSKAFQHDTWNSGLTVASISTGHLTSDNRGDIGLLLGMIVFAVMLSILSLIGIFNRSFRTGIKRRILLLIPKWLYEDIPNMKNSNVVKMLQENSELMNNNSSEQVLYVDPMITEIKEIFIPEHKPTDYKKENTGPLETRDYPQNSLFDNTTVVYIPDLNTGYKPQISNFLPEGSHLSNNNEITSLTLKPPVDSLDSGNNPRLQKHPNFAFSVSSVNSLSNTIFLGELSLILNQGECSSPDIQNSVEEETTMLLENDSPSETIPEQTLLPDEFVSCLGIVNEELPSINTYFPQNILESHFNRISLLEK
Nature of the data set: IL23R Reporter Assay. It is filed as cell-based. The settings on record: HEK293 cells containing IL-23R, IL-12Rβ1 and STAT-inducible luciferase reporter; 10 ng/mL IL-23; 5 h; read-out: IC50. As to the method:
Compounds were serially diluted in 100% (v/v) DMSO) and plated using an Echo acoustic dispenser (Labcyte) into 1536-well non-treated black assay plates (Corning #9146). […] After 5 h at 37° C., 5% CO2, 95% relative humidity, cells were placed at 20° C. and treated with BioGlo reagent (Promega) according to the Manufacturer's instructions. Luminescence was measured on a Pherastar FSX (BMG LabTech).
Background: In a reporter assay the amount or activity of a reporter protein is the signal.

For data set [3], the target named is T2, IL-23-stimulated phosphorylated STAT3 in peripheral blood mononuclear cells (PBMCs) (Homo sapiens, UniProt Q5VWK5).
T2 sequence (Q5VWK5 24-629): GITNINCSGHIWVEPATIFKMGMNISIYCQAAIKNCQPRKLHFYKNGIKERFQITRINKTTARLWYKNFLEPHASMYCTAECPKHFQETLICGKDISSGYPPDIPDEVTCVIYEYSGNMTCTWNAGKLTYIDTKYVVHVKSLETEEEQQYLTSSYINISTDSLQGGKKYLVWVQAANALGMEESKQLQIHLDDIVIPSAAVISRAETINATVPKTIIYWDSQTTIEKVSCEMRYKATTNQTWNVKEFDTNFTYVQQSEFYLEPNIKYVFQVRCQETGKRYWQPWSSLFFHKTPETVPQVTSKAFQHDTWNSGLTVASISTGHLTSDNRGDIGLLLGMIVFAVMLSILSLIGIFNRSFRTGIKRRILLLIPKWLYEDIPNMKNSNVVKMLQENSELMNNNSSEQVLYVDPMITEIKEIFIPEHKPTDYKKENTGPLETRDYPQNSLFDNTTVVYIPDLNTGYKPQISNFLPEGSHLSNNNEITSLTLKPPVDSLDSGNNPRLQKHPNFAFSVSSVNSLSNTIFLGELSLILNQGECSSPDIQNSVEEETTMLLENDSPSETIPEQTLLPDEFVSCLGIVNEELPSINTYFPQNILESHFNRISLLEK
The data set is described as follows: PBMC pSTAT3 Assay. It counts as cell-based. The note with it: PBMCs from healthy donors, IL-23 5 ng/mL, 30 minutes, read-out: PBMC pSTAT3 IC50. In short, it runs like this: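 Anti-CD3/IL-1β-expanded donor PBMCs (day 4) starved ~4 h in RPMI-0.1% BSA, preincubated 30 min with peptide, then stimulated 30 min at 37° C with 5 ng/mL IL-23 (final). Lysates read for phospho-STAT3 by Meso Scale phospho-STAT panel immunoassay.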

Data set [4] has as its target T3, interleukin-23 receptor (IL-23R) (UniProt Q5VWK5 24-629, limits assumed).
T3 sequence (looked up): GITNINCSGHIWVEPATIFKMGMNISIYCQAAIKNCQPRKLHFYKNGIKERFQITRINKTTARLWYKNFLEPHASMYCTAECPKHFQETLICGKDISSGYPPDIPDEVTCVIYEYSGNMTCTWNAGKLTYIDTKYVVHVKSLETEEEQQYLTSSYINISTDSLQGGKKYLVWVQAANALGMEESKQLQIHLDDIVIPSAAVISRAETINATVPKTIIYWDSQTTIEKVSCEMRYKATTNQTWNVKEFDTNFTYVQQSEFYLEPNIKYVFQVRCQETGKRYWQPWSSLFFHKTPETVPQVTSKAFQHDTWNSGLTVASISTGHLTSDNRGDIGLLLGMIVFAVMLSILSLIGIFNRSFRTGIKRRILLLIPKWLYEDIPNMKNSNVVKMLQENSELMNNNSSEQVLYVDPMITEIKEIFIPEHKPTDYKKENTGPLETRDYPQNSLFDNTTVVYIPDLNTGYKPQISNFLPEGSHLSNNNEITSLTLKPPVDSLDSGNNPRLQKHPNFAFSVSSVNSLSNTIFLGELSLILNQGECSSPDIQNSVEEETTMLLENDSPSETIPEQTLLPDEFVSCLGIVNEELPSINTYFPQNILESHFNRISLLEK
The data set is described as follows: cell-based or functional assay.

Counter-ions that a name gives are not always drawn. Like-named read-outs stand apart in the source and are kept apart here. Positions of bridges follow the written chain, without caps; N, C: chain ends. Non-standard residues stand in square brackets, D forms with d. Residues, ends and D or L forms follow the SMILES beside them. *: point of attachment. 2Nal(6-OH) = N[C@@H](Cc1ccc2cc(O)ccc2c1)C(=O)O; Trp(7-Me) = Cc1cccc2c(C[C@H](N)C(=O)O)c[nH]c12; d(hLys(Me3)) = C[N+](C)(C)CCCCC[C@@H](N)C(=O)O; Hexanoyl(6-NMe3+) = C[N+](C)(C)CCCCCC(=O)*; AEF = NCCOc1ccc(C[C@H](N)C(=O)O)cc1; 3Pal = N[C@@H](Cc1cccnc1)C(=O)O; Lys(Me) = CNCCCC[C@H](N)C(=O)O; Pen = CC(C)(S)[C@H](N)C(=O)O; Thp = NC1(C(=O)O)CCOCC1; Me2NCH2CH2 = CN(C)CC*; Tfa = O=C(C(F)(F)F)*; Sar = CNCC(=O)O A value given as a limit tells only on which side of the number the result lay.

Molecule `Cc1cccc2c(C[C@@H]3NC(=O)[C@H]([C@@H](C)O)NC(=O)[C@H](CC(=O)N(C)C)NC(=O)[C@@H](NC(=O)[C@@H](CCCCNC(=O)CCCCC[N+](C)(C)C)NC(=O)C(F)(F)F)C(C)(C)SSC(C)(C)[C@@H](C(=O)N[C@@H](Cc4ccc(OCCN(C)C)cc4)C(=O)N[C@@H](Cc4ccc5cc(O)ccc5c4)C(=O)NC4(C(=O)N[C@@H](CCC(=O)N(C)C)C(=O)N[C@@H](CC(N)=O)C(=O)N[C@@H](Cc5cccnc5)C(=O)N(C)CC(=O)N(C)C)CCOCC4)NC(=O)[C@H](CCC(=O)N(C)C)NC3=O)c[nH]c12` [SEQ ID NO: 405, CF3CO-k(5cpa)-Pen(3)-N(N(Me)2)-T-7MeW-Q(N(Me)2)-Pen(3)-AEF(N(Me)2)-6OH2Nal-THP-Q(N(Me)2)-N-3Pya-Sar-CON(Me)2] (Tfa-[dK](Hexanoyl(6-NMe3+))[Pen]D(NMe2)T[Trp(7-Me)]E(NMe2)[Pen]Y(Me2NCH2CH2)[2Nal(6-OH)][Thp]E(NMe2)N[3Pal][Sar]-NMe2; disulfide 2-7) registered a ring closure, yield after HPLC in data set [1] (from CF3CO-dLys(5cpa)-Pen-Asn(NMe2)-Thr-7MeTrp-Gln(NMe2)-Pen-AEF(NMe2)-6OH2Nal-THP-Gln(NMe2)-Asn-3Pya-Sar-NMe2, 0.51 mM) of 13.4%. The IC50 in data set [2] was under 10000 pM; in data set [3] it was 10 to 100 pM.
For the molecule `CC(=O)N[C@H](CCCCC[N+](C)(C)C)C(=O)N[C@@H]1C(=O)N[C@@H](CC(=O)N(C)C)C(=O)N[C@@H]([C@@H](C)O)C(=O)N[C@@H](Cc2c[nH]c3c(C)cccc23)C(=O)N[C@@H](CCCCN(C)C(C)=O)C(=O)N[C@H](C(=O)N[C@@H](Cc2ccc(OCCN)cc2)C(=O)N[C@@H](Cc2ccc3cc(O)ccc3c2)C(=O)NC2(C(=O)N[C@@H](CCC(=O)O)C(=O)N[C@@H](CC(N)=O)C(=O)N[C@@H](Cc3cccnc3)C(=O)N(C)CC(=O)N(C)C)CCOCC2)C(C)(C)SSC1(C)C` [SEQ ID NO: 389, MeCO-hk(Me)3-Pen(3)-N(N(Me)2)-T-7MeW-K(NMeAc)-Pen(3)-AEF-6OH2Nal-THP-E-N-3Pya-Sar-CON(Me)2] (Ac-[d(hLys(Me3))][Pen]D(NMe2)T[Trp(7-Me)][Lys(Me)](Ac)[Pen][AEF][2Nal(6-OH)][Thp]EN[3Pal][Sar]-NMe2; disulfide 2-7), the ring closure, yield after HPLC in data set [1] (from Ac-dhLys(Me3)-Pen-Asn(NMe2)-Thr-7MeTrp-Lys(NMeAc)-Pen-AEF-6OH2Nal-THP-Glu-Asn-3Pya-Sar-NMe2?, 0.92 mM) was 11%. In addition, the concentration for half-maximal inhibition (IC50) was under 10000 pM in data set [2] and under 10 pM in data set [3].
For the molecule `CC(=O)NCCCC[C@@H]1NC(=O)[C@H](Cc2c[nH]c3c(C)cccc23)NC(=O)[C@H]([C@@H](C)O)NC(=O)[C@H](CC(N)=O)NC(=O)[C@@H](NC(C)=O)C(C)(C)SSC(C)(C)[C@@H](C(=O)N[C@@H](Cc2ccc(OCCN)cc2)C(=O)N[C@@H](Cc2ccc3cc(O)ccc3c2)C(=O)NC2(C(=O)N[C@@H](CCC(=O)O)C(=O)N[C@@H](CC(N)=O)C(=O)N[C@@H](Cc3cccnc3)C(=O)N(C)CC(=O)N[C@@H](CCCCNC(=O)COCCOCCNC(=O)COCCOCCNC(=O)CC[C@H](NC(=O)CCCCCCCCCCCCCCCCC(=O)O)C(=O)O)C(N)=O)CCOCC2)NC1=O`, in data set [1] (from Ac-Pen-Asn-Thr-7MeTrp-Lys(Ac)-Pen-AEF-6OH2Nal-THP-Glu-Asn-3Pya-Sar-Lys(PEG2PEG2gEC18OH)-NH2, 0.82 mM), the ring closure, yield after HPLC is 12.9%.

B1: SEQ ID NO: 11 (peptide)
peptide: XXNTXXXXXXENXX
modifications: MeCO-k(Me)3-Pen(3)-N-T-7(3NAcPh)W-K(Ac)-Pen(3)-AEF(G)-6OH2Nal-THP-E-N-5MePyridinAla-Sar-CONH2
Consider B1, for which the “PBMC pSTAT3 IC50” value in data set [4] is under 10 pM.

The IC50 is the concentration at which inhibition is half-maximal.
